# Experimental data published in patent US20230203096A1, “EPHA4 TARGETING COMPOUNDS AND METHODS OF USE THEREOF” (priority 2020, published 2023).
# Square brackets hold non-standard residues; d marks the D form. Peptide text beside a SMILES is read from it. * marks the point of attachment. Cyclohexanoyl(1S,3S-3-NH2) = N[C@H]1CCC[C@H](C(=O)*)C1; Trp(5-OH) = N[C@@H](Cc1c[nH]c2ccc(O)cc12)C(=O)O; NH(4-morpholinophenyl) = c1cc(N2CCOCC2)ccc1N*; Bip = N[C@@H](Cc1ccc(-c2ccccc2)cc1)C(=O)O; hArg = N=C(N)NCCCC[C@H](N)C(=O)O
# Legend:
# EphA4 = EphA4 (Mus musculus, UniProt Q03137); assay: EphA4 phosphorylation in primary spinal cord motor neurons (IP/western blot); details: 1 μM or 10 μM, 30 min
# [1] = molecular target: T1, ^13C^ε-Met-labeled EphA4-LBD (Homo sapiens, UniProt P54764, C204A); assay: 2D [13C,1H] HSQC NMR chemical shift perturbation of Met resonances; assay type: binding
# T1 construct: His tag (N); made in house; host or cells: E. coli Rosetta-Gami B(DE3), pET15b
# Procedure: Peptides were synthesized by using standard solid-phase synthesis protocol, using the BAL resin as anchoring for the C-terminal amines. Isothermal Titration Calorimetry (ITC) measurements were performed in a reverse fashion by titrating the protein into the ligand solution. Solution nuclear magnetic resonance (NMR) experiments were conducted on a 700 MHz Bruker Avance spectrometer equipped with a TCI cryoprobe. […]
# 2D [^13C,^1H] correlation NMR spectra measured with such protein targets, collected in absence or presence of test ligands can be used to monitor ligand binding and make, albeit qualitative, determinations on possible conformational changes induced by test ligands on the protein target. […] In targeting EphA4, an important aspect regarding the activity of its ligands is whether these agents could be predicted to work as antagonists or agonists.
# NMR spectra were acquired on Bruker Avance III 700 MHz spectrometer equipped with a TCI cryoprobe. All NMR data were processed and analyzed using TOPSPIN 3.6.1 (Bruker, Billerica, Mass., USA).
# Chemical shift changes (A) in the 2D [^13C, ^1H] spectra were calculated as weight average perturbations observed in the ^1H and ^13C dimensions using the following Equation: […]
# [2] = tested on: mouse motor neurons co-cultured with iAstrocytes derived from sALS patients; assay: Co-culture of sALS patient derived iAstrocytes and motor neurons (motor neuron survival); assay type: cell-based; details: 10 μM
# Description: EphA4 has been directly implicated in the progression of ALS in mice models and in human genetic studies. While the mechanisms for onset and progression of ALS remain largely undetermined, astrocytes have been implicated as significant contributors to motor neuron death in both in familial ALS (fALS), that is driven by inactivating mutations within the superoxide dismutase 1 (SOD1) gene and that account for less than 2% of all ALS cases, (Di Giorgio et al., Nat Neurosci, 10 (5): 608-614, (2007); Nagai et al., Nat Neurosci, 10 (5): 615-622, (2007); Yamanaka et al., Nat Neurosci, 11 (3): 251-253, (2008)) and the more common sporadic form of ALS (sALS). […] Recently, it was shown that astrocytes derived from both patient groups are similarly toxic to motor neurons (Haidet-Phillips et al., Nat Biotechnol, 29 (9): 824-828, (2011)).
# Induced Astrocytes were generated by seeding a low quantity of NPCs into astrocyte medium (DMEM media containing 10% FBS and 0.2% N2) for five days. Following differentiation, iAstrocytes were lifted and seeded into a 96 well (10,000 cells per well).
# Cells are sorted through a 100 micron tip with sheath pressure of 27. GFP+ motor neurons were seeded in a 96 well plate (10,000 cells per well). Co-cultures were imaged with InCell for up to three days. Motor neurons with neurite outgrowth of greater than 50 um were counted as alive.
# EphA2-LBD = EphA2-LBD (Homo sapiens, UniProt P29317); assay: Isothermal titration calorimetry (ITC) against EphA2-LBD
# Procedure: Isothermal titration calorimetry (ITC) measurements were performed using the Affinity ITC Autosampler from TA Instruments (New Castle, Del.). The titrations were performed in a reverse fashion by titrating the protein into the ligand solution. […] The injections were made at 200 s or 400 s intervals with a stirring speed of 75 rpm. All the solutions were kept in the autosampler at 4° C. The analysis of the thermodynamics signatures and for dissociation constant determination was performed by the NanoAnalyze software (TA Instruments, New Castle, Del.) and subsequently exported into Microsoft Excel.
# [3] = molecular target: T2, recombinant EphA4 ligand binding domain (Homo sapiens, UniProt P54764, C204A); assay: Isothermal titration calorimetry (ITC) against EphA4-LBD; details: ITC, EphA4-LBD
# T2 construct: His tag (N); made in house; host or cells: E. coli Rosetta-Gami B(DE3), pET15b
# Procedure: Peptides were synthesized by using standard solid-phase synthesis protocol, using the BAL resin as anchoring for the C-terminal amines. Isothermal Titration Calorimetry (ITC) measurements were performed in a reverse fashion by titrating the protein into the ligand solution. Solution nuclear magnetic resonance (NMR) experiments were conducted on a 700 MHz Bruker Avance spectrometer equipped with a TCI cryoprobe. Each protein sample was dissolved into an NMR tube at a final concentration of 20 μM (1% DMSO-d6) in the presence of 20 μM of each compound.
# The fragments were transformed into Rosetta-Gami B(DE3) competent cells and grown in LB medium at 37° C. with 100 μg/mL of ampicillin until reaching an OD600 of 0.6-0.7 followed by induction with 0.4 mM IPTG overnight at 20° C. Bacteria were then collected by centrifugation and lysed by sonication at 4° C. […] EphA4 LBD with ^13C^ε/^1H^ε-Met labeled was expressed like previously described but adding a suspension of 100 mg of ^13C^ε/^1H^ε-Methionine in 1 mL of DMSO per liter of LB medium, 10 minutes before induction. […] Transformation, expression, and purification of EphA3-LBD chimera was performed as described above for EphA4-LBD.
# Isothermal titration calorimetry (ITC) measurements were performed using the Affinity ITC Autosampler from TA Instruments (New Castle, Del.). The titrations were performed in a reverse fashion by titrating the protein into the ligand solution. […] The syringe was filled with a 100 μM solution of EphA4-LBD, EphA3-LBD Chimera, or EphA2-LBD, and 20 injections of 2.5 μL each were performed into the cell containing a 20 μM solution of the compounds. The injections were made at 200 s or 400 s intervals with a stirring speed of 75 rpm. All the solutions were kept in the autosampler at 4° C. The analysis of the thermodynamics signatures and for dissociation constant determination was performed by the NanoAnalyze software (TA Instruments, New Castle, Del.) and subsequently exported into Microsoft Excel.
# Aqueous solubility = assay type: physicochemical
# EphA4-LBD and ephrinA5 = molecular target: T3, EphA4-LBD and ephrinA5 (Homo sapiens, UniProt P54764, C204A); assay: ephrinA5 displacement by 2D [13C,1H] correlation NMR; assay type: binding; details: ^1H] correlation spectra
# T3 construct: His tag (N); made in house; host or cells: E. coli Rosetta-Gami B(DE3) for EphA4-LBD; ephrin-A5 purchased from Sino Biological US Inc (catalogue number not given)
# Procedure: NMR spectra were acquired on Bruker Avance III 700 MHz spectrometer equipped with a TCI cryoprobe. All NMR data were processed and analyzed using TOPSPIN 3.6.1 (Bruker, Billerica, Mass., USA). 2D-[^13C,^1H]-HSQC experiments were acquired with 20 μM proteins using 8 scans with 2,048 and 256 complex data points in the ^1H and […] dimensions, respectively, at 298 K. For the 150D4 NMR titrations in FIG. 8 2D-[^13C,^1H]-HSQC experiments were acquired using 16 scans per increment, and for ephrinA5 binding studies (FIG. 8) with 10 μM protein, using 32 scans per increment.
# [4] = test ligands at 40 μM, EphA4-LDB at 20 μM, Table 8
# T2 sequence (P54764 29-209 C204A): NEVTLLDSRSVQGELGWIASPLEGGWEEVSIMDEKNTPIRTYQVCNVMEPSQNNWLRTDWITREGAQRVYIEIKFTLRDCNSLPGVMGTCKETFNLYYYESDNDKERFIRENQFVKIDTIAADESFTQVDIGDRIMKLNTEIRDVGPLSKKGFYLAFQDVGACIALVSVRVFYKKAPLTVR
# T1 sequence (P54764 29-209 C204A): as above
# Sequence of EphA4 (Q03137 20-986): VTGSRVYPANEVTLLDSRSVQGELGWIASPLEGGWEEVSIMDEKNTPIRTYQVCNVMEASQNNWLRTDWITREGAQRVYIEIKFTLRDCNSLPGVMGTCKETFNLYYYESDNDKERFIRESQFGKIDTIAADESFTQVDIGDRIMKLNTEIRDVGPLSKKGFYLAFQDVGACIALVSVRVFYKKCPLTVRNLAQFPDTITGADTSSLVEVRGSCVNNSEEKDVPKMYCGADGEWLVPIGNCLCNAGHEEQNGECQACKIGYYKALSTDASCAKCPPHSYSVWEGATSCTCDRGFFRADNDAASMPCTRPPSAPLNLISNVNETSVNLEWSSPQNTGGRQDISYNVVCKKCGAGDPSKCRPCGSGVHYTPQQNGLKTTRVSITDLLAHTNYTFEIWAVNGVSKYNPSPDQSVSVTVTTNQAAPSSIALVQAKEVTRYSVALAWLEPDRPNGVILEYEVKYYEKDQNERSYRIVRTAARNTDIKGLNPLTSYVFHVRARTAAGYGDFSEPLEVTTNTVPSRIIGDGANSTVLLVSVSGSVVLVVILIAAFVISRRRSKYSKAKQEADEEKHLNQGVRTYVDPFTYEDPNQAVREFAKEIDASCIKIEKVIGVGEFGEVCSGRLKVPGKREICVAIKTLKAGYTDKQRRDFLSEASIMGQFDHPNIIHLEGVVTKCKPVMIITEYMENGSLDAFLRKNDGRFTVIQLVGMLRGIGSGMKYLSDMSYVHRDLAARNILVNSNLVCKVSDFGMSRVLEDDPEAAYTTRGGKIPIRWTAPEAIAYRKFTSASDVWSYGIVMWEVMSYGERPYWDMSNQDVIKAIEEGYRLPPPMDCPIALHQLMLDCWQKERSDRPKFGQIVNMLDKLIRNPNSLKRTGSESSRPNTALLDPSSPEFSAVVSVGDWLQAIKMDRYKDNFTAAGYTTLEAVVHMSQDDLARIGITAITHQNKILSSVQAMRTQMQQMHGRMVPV
# T3 sequence (P54764 29-209 C204A): as the sequence (P54764 29-209 C204A) above
# Sequence of EphA2-LBD (P29317 27-200): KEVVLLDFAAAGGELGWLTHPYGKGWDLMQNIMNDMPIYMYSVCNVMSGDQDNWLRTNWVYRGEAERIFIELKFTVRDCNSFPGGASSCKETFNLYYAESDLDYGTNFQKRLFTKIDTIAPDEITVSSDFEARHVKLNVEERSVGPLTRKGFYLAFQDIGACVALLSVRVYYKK
structure (smiles),measurement,setting,value
"N=C(N)NCCCC[C@H](NC(=O)[C@H](Cc1ccc(-c2ccccc2)cc1)NC(=O)[C@H](Cc1c[nH]c2ccc(O)cc12)NC(=O)[C@H]1CCC[C@H](N)C1)C(=O)NCC(=O)Nc1ccc(N2CCOCC2)cc1 [Compound 8, (1S,3S)—N—((S)-1-(((S)-3-([1,1′-biphenyl]-4-yl)-1-(((S)-6-guanidino-1-((2-((4-morpholinophenyl)amino)-2-oxoethyl)amino)-1-oxohexan-2-yl)amino)-1-oxopropan-2-yl)amino)-3-(5-hydroxy-1H-indol-3-yl)-1-oxopropan-2-yl)-3-aminocyclohexane-1-carboxamide] ({Cyclohexanoyl(1S,3S-3-NH2)}-[Trp(5-OH)][Bip][hArg]G-{NH(4-morpholinophenyl)})",EphA4 receptor phosphorylation (pEphA4/total EphA4),EphA4,more significantly active than others
same,chemical shift perturbation of Met 115 (in words),[1],no significant perturbations
same,chemical shift changes of Met 60 and Met 164 (in words),[1]; FIG. 8B,large chemical shift changes
same,Δδ ^13C^ϵ/^1H^ϵ Met 164,"[1]; protein 20 μM, 20 μM of each compound",++++ (++++ >0.25 ppm)
same,koff,[1]; read-out: estimated upper limit for the off rate for the complex koff,< 60 s⁻¹
same,Δδ Met 60,[1]; [4],++ (0.1 ppm < ++ <0.2 ppm)
same,Δδ Met 115,[1]; [4],+ (0< + <0.1 ppm)
same,Δδ Met 164,[1]; [4],++++ (++++ >0.25 ppm)
same,protection of motor neurons from sALS astrocytes-induced death,[2],able to protect mouse motor neurons from iAstrocytes derived from sALS patients
same,binding to EphA2 (in words),EphA2-LBD,limited binding
same,-TΔS,[3],-0.88 kcal/mol
same,AH,[3],-8.49 kcal/mol
same,Kd,[3]; read-out: Kd (nM)- ITC,113 nM
same,Aqueous Solubility,Aqueous solubility,>50 mM
same,displacement of ephrinA5 binding to EphA4-LBD,EphA4-LBD and ephrinA5,efficiently displaces the binding of ephrinA5
